The structures appear in SMILES notation.

As a reminder, the IC50 is the concentration needed to halve the response being measured. Read a low IC50 as greater potency in that assay.

In the assay the target is T1, stearoyl-CoA desaturase (SCD) (Rattus norvegicus, UniProt P07308).
T1 construct: from tissue; host or cells: liver microsomes of male Sprague Dawley rats, with SCD induced by a carbohydrate-rich diet after fasting/feeding cycles
T1 sequence (P07308 1-358): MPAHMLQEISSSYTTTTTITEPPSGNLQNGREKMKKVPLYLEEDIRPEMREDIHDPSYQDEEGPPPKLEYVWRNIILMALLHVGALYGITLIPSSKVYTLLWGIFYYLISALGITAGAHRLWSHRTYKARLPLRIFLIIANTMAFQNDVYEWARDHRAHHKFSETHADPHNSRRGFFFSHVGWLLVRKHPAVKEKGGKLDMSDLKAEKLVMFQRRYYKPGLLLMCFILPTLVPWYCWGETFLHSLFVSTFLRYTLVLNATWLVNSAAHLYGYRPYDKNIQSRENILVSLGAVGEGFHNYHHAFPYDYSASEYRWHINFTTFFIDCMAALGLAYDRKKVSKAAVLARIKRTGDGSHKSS
The assay can be described thus: SCD assay in rat liver microsomes ([3H]stearoyl CoA desaturation, adapted from Talamo and Bloch). Type of assay: biochemical. The settings on record: rat liver microsomes 0.2 mg/ml assay final, 30 min preincubation, 45 min reaction, room temperature. The text has this: The identification of compounds of the invention as SCD inhibitors was readily accomplished using the SCD enzyme and microsomal assay procedure described in Talamo and Bloch (1969) Analytical Biochemistry 29:300-304.
The rat liver microsomes were collected according to the procedure described in Ozols (1990) Methods Enzm, 182:225.
Male Spraque Dawley Rats were placed on regimented fasting protocol for one week to stimulate SCD enzymatic activity. 48-hour periods were alternated between feeding and fasting to induce and down-regulate SCD activity with SCD activity being induced via carbohydrate rich diet prior to liver perfusion and collection.
The rats were anesthetized with Isoflurane inhalation anesthetic, the liver perfused with cold phosphate buffered saline (PBS), weighed, and chilled in cold homogenization buffer (250 mM sucrose, 10 mM Tris, 1 mM EDTA, pH 7.6.
The livers were finely minced and placed in homogenization tube. 40 mL of homogenization buffer was added to the homogenization tube and the liver homogenized and centrifuged in a pre-chilled […] for 10 min at 4° C.
Following centrifugation, the supernatant was collected and the pellet removed and discarded. The supernatant was centrifuge at 10,000 G for 35 minutes. Following centrifugation, the supernatant was collect and the pellet discarded. The supernatant was then centrifuged in a pre-chilled 45-Ti rotor at 130,000 G (41,000 RPM) for 90 minutes at 4° C.
The supernatant was then aspirated off and the collected microsomal pellet washed in 25 mL of Glycerol PBS (1×PBS 7.4, 20% Glycerol) and resuspended in 4-5 volumes of Glycerol PBS.
The protein concentration of the microsomal preparation was determined by BCA assay (Pierce) and the microsomes were aliquoted and stored at −80° C.
Biobeads were ground to a smaller size in a mortar and pestle and resuspended in 3.6% TCA. The beads were then filtered through […] mesh.
SCD was determined in the desaturase assay buffer. This assay buffer contained 0.1 M Tris buffer, pH 7.2, 2 mM NADH, 4.8 mM ATP, 0.5 mM CoA, 4.8 mM MgCl2, and 0.1% BSA.
The Procedure for the SCD Assay (Adapted from Talamo and Bloch (1969) Analytical Biochemistry 29:300-304)
1 μl of each compound of Formula I was added to an assay plate by a low volume (0.5-10 μL) multichannel pipette. A DMSO control was also prepared. The microsomes were quickly thawed and added to assay buffer so that a concentration of 0.4 mg/ml was achieved (0.2 mg/ml assay final). 50 μl of the microsome suspension in assay buffer was then added into each well in the compound assay plate, the plate was covered, and the microsomes preincubated with the compounds for 30 minutes on the orbital shaker, 50-75 rpm, at room temperature.
After preincubation, the reaction was initiated by the addition of 50 μl of substrate solution (20 μM Stearoyl CoA, [3H]Stearoyl CoA, 74 nCi) to the preincubated microsomes/compound suspensions in MilliQ (Millipore) H2O. The reaction mixtures were then incubated for 45 minutes on the orbital shaker at 50-75 rpm at room temperature.
The reaction was terminated by the addition of 10 μl of 21% […] (TCA) to the reaction mixture followed incubation on the orbital shaker for 30 minutes at 50-75 rpm at room temperature followed by centrifugation for 5 minutes at 3700 rpm.
50 μl of a 6% Bio-Bead suspension in H2O was added to the reaction mixture and the assay plate was sealed. The Bio-Bead mixture was incubated on the orbital shaker for 1 hour, 100-150 rpm at room temperature, and then the mixture was centrifuged at 2000 g for 5 minutes to pellet the Bio-Beads.
25 μl of the supernatant was harvested from each well and transferred to a detection plate. 100 μl of OptiPhase SuperMix scinitillation cocktail (containing sufficient NaOH to neutralize the TCA) was added and the solutions mixed by vigorous shaking (300-400 rpm) for 5 minutes at room temperature. […]
For orientation: Microsomes from liver hold many membrane-bound enzymes, among them those of drug oxidation.

Compound `COc1ccc(-c2nc3cnc(NCc4ccc(Cl)c(Cl)c4)nc3n(CCNC(C)=O)c2=O)cc1` [Compound 1, N-[2-(2-{[(3,4-dichlorophenyl)methyl]amino}-6-(4-methoxyphenyl)-7-oxo-8-hydropteridin-8-yl)ethyl]acetamide] returned a half-inhibitory concentration (IC50) of 0.16 µM. That is a sub-micromolar value.
The value for `COc1ccc(-c2nc3cnc(NCc4ccc(Cl)c(Cl)c4)nc3n(CCNS(C)(=O)=O)c2=O)cc1` [Compound 2, 2-{[(3,4-dichlorophenyl)methyl]amino}-6-(4-methoxyphenyl)-8-{2-[(methylsulfonyl)amino]ethyl}-8-hydropteridin-7-one] was 2.8 µM; that for `COc1ccc(-c2nc3cnc(NCc4ccc(Cl)c(Cl)c4)nc3n([C@@H]3CCNC3)c2=O)cc1` [Compound 3, 8-((3R)pyrrolidin-3-yl)-2-{[(3,4-dichlorophenyl)methyl]amino}-6-(4-methoxyphenyl)-8-hydropteridin-7-one] was 5 µM.
On to `COc1ccc(-c2nc3cnc(NCc4ccc(Cl)c(Cl)c4)nc3n(CCNC(=O)c3cccnc3)c2=O)cc1` [Compound 4, N-[2-(2-{[(3,4-dichlorophenyl)methyl]amino}-6-(4-methoxyphenyl)-7-oxo(8-hydropteridin-8-yl))ethyl]-3-pyridylcarboxamide], for which the IC50 is 1.6 µM.
For `CCCC(=O)NCCn1c(=O)c(-c2ccc(OC)cc2)nc2cnc(NCc3ccc(Cl)c(Cl)c3)nc21` [Compound 5, N-[2-(2-{[(3,4-dichlorophenyl)methyl]amino}-6-(4-methoxyphenyl)-7-oxo-8-hydropteridin-8-yl)ethyl]butanamide] the value was 18 µM; for `CCC(=O)NCCn1c(=O)c(-c2ccc(OC)cc2)nc2cnc(NCc3ccc(Cl)c(Cl)c3)nc21` [Compound 6, N-[2-(2-{[(3,4-dichlorophenyl)methyl]amino}-6-(4-methoxyphenyl)-7-oxo-8-hydropteridin-8-yl)ethyl]propanamide], 2.8 µM; for `COc1ccc(-c2nc3cnc(NCc4ccc(Cl)c(Cl)c4)nc3n(CCNC(=O)c3ccccc3)c2=O)cc1` [Compound 7, N-[2-(2-{[(3,4-dichlorophenyl)methyl]amino}-6-(4-methoxyphenyl)-7-oxo(8-hydropteridin-8-yl))ethyl]benzamide], 0.56 µM.
The value for `COCC(=O)NCCn1c(=O)c(-c2ccc(OC)cc2)nc2cnc(NCc3ccc(Cl)c(Cl)c3)nc21` [Compound 8, N-[2-(2-{[(3,4-dichlorophenyl)methyl]amino}-6-(4-methoxyphenyl)-7-oxo(8-hydropteridin-8-yl))ethyl]-2-methoxyacetamide] was 1.8 µM; that for `CC(=O)NCCn1c(=O)c(-c2cccnc2)nc2cnc(NCc3ccccc3)nc21` [Compound 9, N-(2-{7-oxo-2-[benzylamino]-6-(3-pyridyl)-8-hydropteridin-8-yl}ethyl)acetamide] was 2.6 µM; that for `COc1ccc(-c2nc3cnc(NCc4ccc(F)cc4)nc3n(CCNC(C)=O)c2=O)cc1` [Compound 10, N-[2-(2-{[(4-fluorophenyl)methyl]amino}-6-(4-methoxyphenyl)-7-oxo-8-hydropteridin-8-yl)ethyl]acetamide] was 1.3 µM.
As for `CC(=O)NCCn1c(=O)c(-c2cccnc2)nc2cnc(NCc3ccc(F)cc3)nc21` [Compound 11, N-[2-(2-{[(4-fluorophenyl)methyl]amino}-7-oxo-6-(3-pyridyl)-8-hydropteridin-8-yl)ethyl]acetamide], the concentration for half-maximal inhibition (IC50) worked out at 5.7 µM.
For `CC(=O)NCCn1c(=O)c(-c2cccnc2)nc2cnc(NCc3ccc(Cl)c(Cl)c3)nc21` [Compound 12, N-[2-(2-{[(3,4-dichlorophenyl)methyl]amino}-7-oxo-6-(3-pyridyl)-8-hydropteridin-8-yl)ethyl]acetamide] the value was 0.23 µM.
The value for `CC(=O)NCCn1c(=O)c(C(F)(F)F)nc2cnc(NCc3ccc(Cl)c(Cl)c3)nc21` [Compound 13, N-[2-(2-{[(3,4-dichlorophenyl)methyl]amino}-7-oxo-6-(trifluoromethyl)-8-hydropteridin-8-yl)ethyl]acetamide] was 2.1 µM.
For `CC(=O)NCCn1c(=O)c(-c2cccs2)nc2cnc(NCc3ccc(Cl)c(Cl)c3)nc21` [Compound 14, N-[2-(2-{[(3,4-dichlorophenyl)methyl]amino}-7-oxo-6-(2-thienyl)-8-hydropteridin-8-yl)ethyl]acetamide] the value was 2 µM; for `O=c1c(-c2cccnc2)nc2cnc(NCc3ccc(Cl)c(Cl)c3)nc2n1CCn1cncn1` [Compound 15, 2-{[(3,4-dichlorophenyl)methyl]amino}-6-(3-pyridyl)-8-(2-(1,2,4-triazolyl)ethyl)-8-hydropteridin-7-one], 5.8 µM.
In the case of `COc1ccc(-c2nc3cnc(NCc4ccc(Cl)c(Cl)c4)nc3n(CCNC(=N)N)c2=O)cc1` [Compound 16, amino[2-(2-{[(3,4-dichlorophenyl)methyl]amino}-6-(4-methoxyphenyl)-7-oxo(8-hydropteridin-8-yl))ethyl]carboxamidine], the IC50 was found to be 11 µM. Against the preceding compound, the IC50 is about 1.9-fold higher.
The value for `CC(=O)NCCn1c(=O)cnc2cnc(NCc3ccc(Cl)c(Cl)c3)nc21` [Compound 17, N-[2-(2-{[(3,4-dichlorophenyl)methyl]amino}-7-oxo-8-hydropteridin-8-yl)ethyl]acetamide] was 0.34 µM; that for `COc1ccc(-c2nc3cnc(NCc4ccc(F)c(F)c4)nc3n(CCNC(C)=O)c2=O)cc1` [Compound 18, N-[2-(2-{[(3,4-difluorophenyl)methyl]amino}-6-(4-methoxyphenyl)-7-oxo-8-hydropteridin-8-yl)ethyl]acetamide] was 13 µM; that for `CC(=O)NCCn1c(=O)c(-c2cccs2)nc2cnc(NCc3ccc(F)c(F)c3)nc21` [Compound 19, N-[2-(2-{[(3,4-difluorophenyl)methyl]amino}-7-oxo-6-(2-thienyl)-8-hydropteridin-8-yl)ethyl]acetamide] was 3.4 µM.
The value for `CC(=O)NCCn1c(=O)c(C(F)(F)F)nc2cnc(NCc3ccc(F)cc3)nc21` [Compound 20, N-[2-(2-{[(4-fluorophenyl)methyl]amino}-7-oxo-6-(trifluoromethyl)-8-hydropteridin-8-yl)ethyl]acetamide] was 22 µM.
The value for `CC(=O)NCCn1c(=O)c(-c2ncccn2)nc2cnc(NCc3ccc(Cl)c(Cl)c3)nc21` [Compound 21, N-[2-(2-{[(3,4-dichlorophenyl)methyl]amino}-7-oxo-6-pyrimidin-2-yl-8-hydropteridin-8-yl)ethyl]acetamide] was 4.34 µM; that for `COc1ccc(-c2nc3cnc(NCc4ccc(Cl)c(Cl)c4)nc3n(CCNC(C)=O)c2=O)cc1F` [Compound 22, N-[2-(2-{[(3,4-dichlorophenyl)methyl]amino}-6-(3-fluoro-4-methoxyphenyl)-7-oxo-8-hydropteridin-8-yl)ethyl]acetamide] was 2.21 µM.
For `COc1ccc(-c2nc3cnc(NCc4ccc(Cl)c(Cl)c4)nc3n(CCNC(=O)c3ccsc3)c2=O)cc1` [Compound 23, N-[2-(2-{[(3,4-dichlorophenyl)methyl]amino}-6-(4-methoxyphenyl)-7-oxo(8-hydropteridin-8-yl))ethyl]-3-thienylcarboxamide], it took 0.47 µM to reach half-maximal inhibition (IC50).

These data come from patent US7662819B2, “Pteridinone derivatives for use as stearoyl CoA desaturase inhibitors” (Gilead Palo Alto, Inc., priority 2007, dated 2010).
